# pIC50: −log10 of the molar value.
# Assays:
# CDK2/Cyclin E1(14-475) = CDK2/Cyclin E1(14-475) (Homo sapiens, UniProt P24941); assay: Caliper LabChip EZ Reader mobility shift assay, inhibition of CDK2/Cyclin E1 activity; format: biochemical; settings: class symbols A-D
# Method: Inhibition of CDK2/Cyclin E1 activity in the presence of compounds of the present disclosure was evaluated using a Caliper LabChip® EZ Reader mobility shift assay. In the assay, activated CDK2/Cyclin E1 catalyzes the phosphorylation of a fluorescently tagged peptide 5-FAM-QSPKKG-CONH2 (PerkinElmer, FL Peptide 18) which induces a difference in capillary electrophoresis mobility. The peptide substrate and product were measured, and the conversion ratio was used to determine the inhibition (as % activity and IC50 values) of CDK2/Cyclin E1. Reactions contained 50 mM HEPES pH 7.5, 10 mM MgCl2, 1 mM EDTA, 2 mM DTT, 0.01% Brij35, 0.5 mg/mL BSA, 0.1% DMSO, 2.5 nM CDK2/Cyclin E1(14-475), 100 μM ATP, and 1.5 μM fluorescent peptide substrate.
# Dose titrations of inhibitors in 100% DMSO were combined with 3.25 nM CDK2/Cyclin E1(14-475) and 130 μM of ATP in reaction buffer. The mixtures were incubated for 30 minutes before the addition of fluorescent peptide substrate to initiate the kinase reaction. The final conditions were 2.5 nM CDK2/Cyclin E1(14-475), 100 μM ATP, and 1.5 μM fluorescent peptide. The reactions were stopped after 100 minutes with the addition of EDTA (6 mM final EDTA concentration). The stopped reactions were analyzed on a Caliper LabChip® EZ Reader II. The conversion ratios were normalized to yield % activity, plotted against compound concentration, and fit to a four-parameter equation to determine the IC50 for each compound.
# Kuramochi cells = assay: BrdU cell proliferation assay (colorimetric ELISA), Kuramochi cells; format: cell-based; settings: class symbols A-D
# Method: A BrdU assay was used as a measure of proliferation based on the DNA replication process of proliferating cells. BrdU, a pyrimidine analog, is added to the cell culture and incorporated into the DNA of proliferating cells. The presence of the BrdU analog was then measured through a colorimetric ELISA. After fixation and permeabilization of cells, peroxidase-conjugated antibody recognizing BrdU is added and allowed to incubate, followed by thorough washing to remove unbound antibody. In order to quantify the amount of bound antibody, peroxidase substrate is added and produces a color that can be measured at 450 nm.
# On day −1, Kuramochi cells (Sekisui XenoTech JCRB0098) were seeded at 2,000 cells/well in columns 2-12 of a 96 well plate (Corning, CLS3596) in 150 uL media and allowed to adhere overnight at 37 degree with 5% CO2. In order to assess specificity of the compounds, Kuramochi RB^KO cells were also plated and treated, as RB^KO cells were not expected to show a proliferative response to CCNE/CDK specific inhibitors.
# On day 0, the source plate was prepared by adding 10 mM compounds and performing 3-fold serial dilutions for a 4-point dose response of each compound. Using a multichannel pipette, 2 uL of the contents of the source plate were stamped into an intermediate plate with 500 uL of RPMI 1640 Media, GlutaMAX Supplement (Life Technologies, 61870127) in each well of a Nunc 96 DeepWell™ plate, non-treated 96 DeepWell plate, 2 mL/well, sterile, natural, 60/cs (Sigma Z717274) and mixed thoroughly. 50 uL from row A of this intermediate plate were added to rows A-H of one plate of previously seeded Kuramochi cells, and each subsequent row of the intermediate plate was added to a full plate of cells.
# On day 4, the plates were developed using the BrdU ELISA Cell Proliferation Assay according to manufacturer's instructions (Roche, 11647229001). Briefly, BrdU was diluted 1:100 in Gibco®, Opti-MEM® and 20 μL/well was added, shaken for 10 minutes at 350 rpm, and then returned to the incubator for 1 hour. Following incubation, the medium was discarded, and the cells were fixed by adding 200 μL of Fix/Denature solution. The anti-BrdU peroxidase antibody was diluted 1:1000 in OptiMEM, added at 100 μL/well, and incubated while shaking (350 rpm) for one hour. Three washes with PBS were performed to remove any unbound antibody, followed by the addition of 100 μL of substrate solution to each well. […] was then added to halt the reaction, and plates were read out using an Envision spectrophotometer (Perkin Elmer) set to read 450 nm absorbance. Background absorbance values from empty wells were subtracted from all samples and then normalized to DMSO treated wells.
Structure (SMILES),pIC50 (CDK2/Cyclin E1(14-475)),pIC50 (Kuramochi cells)
CNC(=O)[C@H](CCCc1ccccc1)NC(=O)C1CN(C(=O)c2cccc(CO)n2)CC2CN(C(=O)c3ccc(OC(C)C)c(OC)c3)CC21 (stereo partly shown) [I-209],< 5.00,< 5.00
COc1cc(C(=O)N2CC3CN(C(=O)Cc4c[nH]c5cc(Cl)ccc45)CC(C(=O)Nc4cncc(Oc5ccccc5)c4)C3C2)ccc1OC(C)C (stereo not shown) [I-240],5.30 to 6.30,< 5.00
CNC(=O)[C@H](CCCc1ccccc1)NC(=O)C1CN(C(=O)c2ccc(C)[nH]2)CC2CN(C(=O)c3ccc(OC(C)C)c(OC)c3)CC21 (stereo partly shown) [I-189],< 5.00,< 5.00
"COC(=O)[C@@H](NC(=O)C1CN(C(=O)Cc2c[nH]c3cc(Cl)ccc23)CC2CN(C(=O)c3ccc(OC(C)C)c(OC)c3)CC21)[C@H](C)OCc1ccccc1 (stereo partly drawn) [I-255, methyl (2S,3S)-3-(benzyloxy)-2-(5-(2-(6-chloro-1H-indol-3-yl)acetyl)-2-(4-isopropoxy-3-methoxybenzoyl)octahydro-1H-pyrrolo[3,4-c]pyridine-7-carboxamido)butanoate]",≥ 6.30,5.30 to 6.30
CCc1ccc(C(=O)N2CC3CN(C(=O)c4ccc(OC(C)C)c(OC)c4)CC3C(C(=O)N[C@@H](CCCc3ccccc3)C(=O)NC)C2)nc1 (stereo partly shown) [I-214],< 5.00,< 5.00
CNC(=O)[C@H](CCCc1ccccc1)NC(=O)C1CN(C(=O)Cn2ccc3ccccc32)CC2CN(C(=O)c3ccc(OC(C)C)c(OC)c3)CC21 (stereo partly shown) [I-161],< 5.00,< 5.00
CNC(=O)[C@H](CCCc1ccccc1)NC(=O)C1CN(C(=O)Cc2c[nH]c3cc(Cl)ccc23)CC2CN(C(=O)c3cccc(-c4ccccc4)c3)CC21 (stereo partly shown) [I-11],< 5.00,< 5.00
"COc1cc(C(=O)N2CC3CN(C(=O)Cc4c[nH]c5cc(Cl)ccc45)CC(C(=O)Nc4cncc(Cc5ccccc5)c4)C3C2)ccc1OC(C)C (stereo not shown) [I-238, N-(5-benzylpyridin-3-yl)-5-(2-(6-chloro-1H-indol-3-yl)acetyl)-2-(4-isopropoxy-3-methoxybenzoyl)octahydro-1H-pyrrolo[3,4-c]pyridine-7-carboxamide]",5.30 to 6.30,5.30 to 6.30
CNC(=O)[C@H](CCCc1ccccc1)NC(=O)C1CN(C(=O)c2ncoc2C)CC2CN(C(=O)c3ccc(OC(C)C)c(OC)c3)CC21 (stereo partly shown) [I-193],< 5.00,< 5.00
CNC(=O)[C@H](CCCc1ccccc1)NC(=O)C1CN(C(=O)Cc2c[nH]c3cc(Cl)ccc23)CC2CN(C(=O)c3c4ccccc4nn3C)CC21 (stereo partly shown) [I-48],< 5.00,< 5.00
CNC(=O)[C@H](CCCC(C)(C)C)NC(=O)C1CN(C(=O)Cc2c[nH]c3cc(Cl)ccc23)CC2CN(C(=O)c3ccc(OC(C)C)c(OC)c3)CC21 (stereo partly shown) [I-96],,< 5.00
CNC(=O)[C@H](CCCc1ccccc1)NC(=O)C1CN(C(=O)Cc2c[nH]c3cc(Cl)ccc23)CC2CN(C(=O)c3ncc(-c4ccccc4)s3)CC21 (stereo partly shown) [I-68],,< 5.00
CNC(=O)[C@@H](Cc1ccc(O)cc1)NC(=O)C1CN(C(=O)Cc2c[nH]c3cc(Cl)ccc23)CC2CN(C(=O)c3ccc(OC(C)C)c(OC)c3)CC21 (stereo partly shown) [I-121],,< 5.00
CNC(=O)[C@H](CCCc1ccccc1)NC(=O)C1CN(C(=O)Cc2c[nH]c3cc(Cl)ccc23)CC2CN(C(=O)c3ccc4oc(=O)n(C)c4c3)CC21 (stereo partly shown) [I-76],,< 5.00
CNC(=O)[C@H](CCCc1ccccc1)NC(=O)C1CN(C(=O)Cc2c[nH]c3cc(Cl)ccc23)CC2CN(C(=O)c3cccc(OC)c3)CC21 (stereo partly shown) [I-49],,< 5.00
CNC(=O)[C@H](CCCc1ccccc1)NC(=O)C1CN(C(=O)Cc2cccnc2)CC2CN(C(=O)c3ccc(OC(C)C)c(OC)c3)CC21 (stereo partly shown) [I-224],< 5.00,
CNC(=O)[C@H](CCCc1ccccc1)NC(=O)C1CN(C(=O)Cc2c[nH]c3cc(Cl)ccc23)CC2CN(C(=O)C3CCCCC3)CC21 (stereo partly shown) [I-51],,< 5.00
COc1cc(C(=O)N2CC3CN(C(=O)Cc4c[nH]c5cc(Cl)ccc45)CC(C(=O)NCCCCc4ccccc4)C3C2)ccc1OC(C)C (stereo not shown) [I-119],,< 5.00
"CNC(=O)[C@H](CCCc1ccccc1)NC(=O)C1CN(C(=O)c2cn3ccncc3n2)CC2CN(C(=O)c3ccc(OC(C)C)c(OC)c3)CC21 (single isomer, unassigned) [I-194]",,< 5.00
CNC(=O)[C@H](CCCc1ccccc1)NC(=O)C1CN(C(=O)Cc2c[nH]c3cc(Cl)ccc23)CC2CN(C(=O)c3cccc(-c4cccnc4)c3)CC21 (stereo partly shown) [I-63],,< 5.00
CNC(=O)[C@H](CCCc1ccccc1)NC(=O)C1CN(C(=O)Cc2c[nH]c3cc(Cl)ccc23)CC2CN(C(=O)c3ccc4c(c3)CCO4)CC21 (stereo partly shown) [I-53],,< 5.00
CNC(=O)[C@@H](Cc1ccccc1)NC(=O)C1CN(C(=O)Cc2c[nH]c3cc(Cl)ccc23)CC2CN(C(=O)c3ccc(OC(C)C)c(OC)c3)CC21 (stereo partly shown) [I-120],,< 5.00

# The next lines start with results.
pIC50 (CDK2/Cyclin E1(14-475)),Structure (SMILES),pIC50 (Kuramochi cells)
< 5.00,CNC(=O)[C@H](CCCc1ccccc1)NC(=O)C1CN(C(=O)Cc2c[nH]c3cc(Cl)ccc23)CC2CN(C(=O)c3ccc4[nH]ncc4c3)CC21 (stereo partly shown) [I-8],< 5.00
< 5.00,CNC(=O)[C@H](CCCc1ccccc1)NC(=O)C1CN(C(=O)Cc2c[nH]c3cc(Cl)ccc23)CC2CN(C(=O)c3ccc4oc(C)cc4c3)CC21 (stereo partly shown) [I-3],< 5.00
< 5.00,"CNC(=O)[C@H](CCCc1ccccc1)NC(=O)C1CN(C(=O)Cc2c[nH]c3cc(Cl)ccc23)CC2CN(C(=O)c3ccc4c(c3)CC(=O)N4)CC21 (single isomer, unassigned) [I-22]",< 5.00
< 5.00,CNC(=O)[C@H](CCCc1ccccc1)NC(=O)C1CN(C(=O)Cc2c[nH]c3cc(Cl)ccc23)CC2CN(C(=O)c3ccc(OC)cc3)CC21 (stereo partly shown) [I-5],< 5.00
< 5.00,CNC(=O)[C@H](CCCc1ccccc1)NC(=O)C1CN(C(=O)Cc2c[nH]c3cc(Cl)ccc23)CC2CN(C(=O)c3cnc4ccccc4c3)CC21 (stereo partly shown) [I-10],< 5.00
< 5.00,CNC(=O)[C@H](CCCc1ccccc1)NC(=O)C1CN(C(=O)Cc2c[nH]c3cc(OC)ccc23)CC2CN(C(=O)c3ccc(C(F)(F)F)c(Cl)c3)CC21 (stereo partly shown) [I-248],< 5.00
< 5.00,CNC(=O)[C@H](CCCc1ccccc1)NC(=O)C1CN(C(=O)Cc2c[nH]c3cc(Cl)ccc23)CC2CN(C(=O)c3ccc(OC(C)C)c(Cl)c3)CC21 (stereo partly shown) [I-24],< 5.00
5.00 to 5.30,CNC(=O)[C@H](CCCc1ccccc1)NC(=O)C1CN(C(=O)Cc2c[nH]c3cc(C)ccc23)CC2CN(C(=O)c3ccc(OC(C)C)c(OC)c3)CC21 (stereo partly shown) [I-231],< 5.00
< 5.00,CNC(=O)[C@H](CCCc1ccccc1)NC(=O)C1CN(C(=O)Cc2c[nH]c3cc(Cl)ccc23)CC2CN(C(=O)c3ccc4ncccc4c3)CC21 (stereo partly shown) [I-36],
5.00 to 5.30,CNC(=O)[C@H](CCCc1ccccc1)NC(=O)C1CN(C(=O)Cc2c[nH]c3cc(Cl)ccc23)CC2CN(C(=O)c3ccc(OC)c(OC)c3)CC21 (stereo partly shown) [I-33],
< 5.00,"CNC(=O)[C@H](CCCc1ccccc1)NC(=O)C1CN(CCc2c[nH]c3cc(Cl)ccc23)CC2CN(C(=O)c3ccc(OC(C)C)c(OC)c3)CC21 (stereo partly drawn) [I-254, 5-(2-(6-chloro-1H-indol-3-yl)ethyl)-2-(4-isopropoxy-3-methoxybenzoyl)-N—((S)-1-(methylamino)-1-oxo-5-phenylpentan-2-yl)octahydro-1H-pyrrolo[3,4-c]pyridine-7-carboxamide]",
< 5.00,CNC(=O)[C@H](CCCc1ccccc1)NC(=O)C1CN(C(=O)Cc2c[nH]c3cc(Cl)ccc23)CC2CN(C(=O)c3ccc(O)cc3)CC21 (stereo partly shown) [I-4],

# Reference: patent publication US12053459B2, “CDK2 inhibitors and methods of using the same” (Cedilla Therapeutics, Inc., priority 2021, dated 2024)
